Measurements taken from the SangsterLogP compilation.

| SMILES | logP |
| --- | --- |
| COc1ccc(CCNC[C@H](O)COc2ccc(-c3nc(Br)c(C)[nH]3)cc2)cc1OC | 2.69 |
| CCCCNC(=O)NCCNCC(O)COc1ccc(-c2ncc(C)[nH]2)cc1 (centres undefined) | 1.24 |
| CC(C)NC[C@H](O)COc1ccc(Cc2ncc(Br)[nH]2)cc1 | 1.35 |
| CC(C)NCC(O)COc1ccc(-c2ncc[nH]2)cc1 (centres undefined) | 0.65 |
| COc1ccc(CCNC[C@H](O)COc2ccc(-c3nc(C(C)=O)c(C)[nH]3)cc2)cc1OC | 2.14 |
| CCOCCNCC(O)COc1ccc(-c2ncc(-c3cccs3)[nH]2)cc1 (centres undefined) | 2.25 |
| COc1ccc(CCNC[C@H](O)COc2ccc(-c3ncc(C(N)=O)[nH]3)cc2)cc1OC | 0.99 |
| COc1ccc(CCNCC(O)COc2ccc(-c3ncc(C)n3C)cc2)cc1OC (centres undefined) | 1.72 |
| CCCNCC(O)COc1ccc(-c2ncc(-c3cccs3)[nH]2)cc1 (centres undefined) | 2.84 |
| COc1ccc(CCNC[C@H](O)COc2ccc(COCc3ncc[nH]3)cc2)cc1OC | 1.29 |
| COc1ccc(CCNC[C@H](O)COc2ccc(Cc3ncc(C(C)=O)[nH]3)cc2)cc1OC | 0.87 |
| COc1ccc(CCNCC(O)COc2ccc(-c3nccn3C)cc2)cc1OC (centres undefined) | 2.08 |
| COc1ccc(CCNC[C@H](O)COc2ccc(CCc3ncc(-c4cccs4)[nH]3)cc2)cc1OC | 2.08 |
| CC(C)NCC(O)COc1ccc(-c2ncc(-c3cccs3)[nH]2)cc1 (centres undefined) | 2.18 |
| COc1ccc(CCNC[C@H](O)COc2ccc(Cc3ncc(-c4cccs4)[nH]3)cc2)cc1OC | 2.28 |
| COc1ccc(CCNCC(O)COc2ccc(OCc3ncc[nH]3)cc2)cc1OC (centres undefined) | 1.21 |
| OC(CNCCc1ccncc1)COc1ccc(-c2ncc(-c3cccs3)[nH]2)cc1 (centres undefined) | 2.25 |
| COc1ccc(CCNCC(O)COc2ccc(-c3ncco3)cc2)cc1OC (centres undefined) | 2.6 |
| Cc1cnc(Cc2ccc(OC[C@@H](O)CNC(C)(C)C)cc2)[nH]1 | 1.11 |
| CC(C)NC[C@H](O)COc1ccc(-c2ncc(C(C)C)[nH]2)cc1 | 2.23 |
| COc1ccc(CCNC[C@H](O)COc2ccc(-c3nc(Cl)c(C)[nH]3)cc2)cc1OC | 2.35 |
| O=C(NCCNCC(O)COc1ccc(-c2ncc[nH]2)cc1)Nc1ccccc1 (centres undefined) | 1.19 |
| CC(C)(C)NC[C@H](O)COc1ccc(Cc2ncc(-c3cccs3)[nH]2)cc1 | 2.57 |
| CCOC(=O)c1cnc(-c2ccc(OC[C@@H](O)CNCCc3ccc(OC)c(OC)c3)cc2)[nH]1 | 2.3 |

Second part, the compound after the results:

| logP | SMILES |
| --- | --- |
| 1.07 | COCc1nc(-c2ccc(OC[C@@H](O)CNCCc3ccc(OC)c(OC)c3)cc2)[nH]c1C |
| 2.4 | COc1ccc(CCNC[C@H](O)COc2ccc(-c3ncc(Cl)[nH]3)cc2)cc1OC |
| 2.06 | COCCc1cnc(-c2ccc(OC[C@@H](O)CNCCc3ccc(OC)c(OC)c3)cc2)[nH]1 |
| 2.73 | COc1ccc(CCNC[C@H](O)COc2ccc(-c3ncc(Br)[nH]3)cc2Cl)cc1OC |
| 2.86 | COc1ccc(CCNC[C@H](O)COc2ccc(-c3ncc(C(C)(C)C)[nH]3)cc2)cc1OC |
| 2.3 | COc1ccc(CCNCC(O)COc2ccc(-c3ncc(C)[nH]3)cc2Br)cc1OC (centres undefined) |
| 1.28 | COc1ccc(CCNC[C@H](O)COc2ccc(Cc3ncc(C)[nH]3)cc2)cc1OC |
| 1.89 | COc1ccc(CCNCC(O)COc2ccc(-c3ncc(C)[nH]3)cc2OC)cc1OC (centres undefined) |
| 1.71 | COCc1cnc(-c2ccc(OC[C@@H](O)CNCCc3ccc(OC)c(OC)c3)cc2)[nH]1 |
| 1.23 | COc1ccc(CCNC[C@H](O)COc2ccc(-c3ncc(C(C)=O)[nH]3)cc2)cc1OC |
| 0.84 | CCOCc1cnc(-c2ccc(OC[C@@H](O)CNCCc3ccc(OC)c(OC)c3)cc2)[nH]1 |
| 2.49 | COc1ccc(CCNC[C@H](O)COc2ccc(-c3ncc(C(C)C)[nH]3)cc2)cc1OC |
| 0.63 | COc1ccc(CCNC[C@H](O)COc2ccc(-c3ncc(CO)[nH]3)cc2)cc1OC |
| 3.32 | COc1ccc(CCNC[C@H](O)COc2ccc(-c3ncc(-c4cccs4)[nH]3)cc2C)cc1OC |
| 1.9 | COc1ccc(CCNC[C@H](O)COc2ccc(-c3ncc(Br)[nH]3)cc2)cc1OC |
